This is an account of results in ChEMBL document CHEMBL5126555, “Targeting breast cancer resistance protein (BCRP/ABCG2): Functional inhibitors and expression modulators” (Eur J Med Chem, 2022).

Experiment [1] addresses T1, Broad substrate specificity ATP-binding cassette transporter ABCG2 (Homo sapiens, UniProt Q9UNQ0).
T1 sequence (Q9UNQ0 whole entry): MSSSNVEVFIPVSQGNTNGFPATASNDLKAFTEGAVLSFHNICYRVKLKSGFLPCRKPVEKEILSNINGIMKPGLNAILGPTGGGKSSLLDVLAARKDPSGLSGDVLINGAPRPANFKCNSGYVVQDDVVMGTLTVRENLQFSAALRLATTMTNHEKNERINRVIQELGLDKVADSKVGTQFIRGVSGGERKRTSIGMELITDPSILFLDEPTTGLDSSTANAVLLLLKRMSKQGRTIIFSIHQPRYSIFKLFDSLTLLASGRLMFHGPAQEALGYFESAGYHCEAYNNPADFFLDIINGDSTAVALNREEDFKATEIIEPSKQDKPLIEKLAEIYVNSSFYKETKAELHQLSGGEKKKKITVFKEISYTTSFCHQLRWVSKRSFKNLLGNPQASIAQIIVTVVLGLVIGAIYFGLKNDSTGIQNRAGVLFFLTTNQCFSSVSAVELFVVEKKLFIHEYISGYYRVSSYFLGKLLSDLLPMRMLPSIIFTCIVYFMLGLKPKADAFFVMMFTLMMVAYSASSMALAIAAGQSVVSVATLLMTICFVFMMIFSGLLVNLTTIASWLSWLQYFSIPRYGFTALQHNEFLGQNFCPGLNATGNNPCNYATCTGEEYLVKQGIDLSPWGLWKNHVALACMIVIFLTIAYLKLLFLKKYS
Briefly: Inhibition of ABCG2 (unknown origin) expressed in human HEK293 cells membrane vesicles assessed inhibition of BCRP- mediated transport of 3[H]-E1S for 1 mins using [3H]-estrone sulfate as substrate by liquid scintillation counter analysis. In kind it is cell membranes, Membrane vesicle.

Experiment [2] deals with T1, Broad substrate specificity ATP-binding cassette transporter ABCG2. Briefly: Inhibition of human ABCG2 expressed in human HEK293 cells membrane vesicles mediated transport of 3[H]-MTX for 2 mins using [3H]-methotrexate as substrate by rapid filtration technique. The class given is cell membranes, Membrane vesicle.
Experiment [3] shares this target. Briefly: Inhibition of human ABCG2 expressed in dog MDCK-II-BCRP cells mediated pheophorbide A efflux preincubated with PhA followed by compound addition and measured after 60 mins by flow cytometry. The class given is cell-based. A general note: A flow cytometer gives signals particle by particle.
For experiment [4] the target is unchanged. Briefly: Inhibition of human ABCG2 expressed in human SAOS-2 cells mediated mitoxantrone efflux using mitoxantrone as substrate by flow cytometry. In kind it is cell-based.
Experiment [5] has the same target. In words: Inhibition of ABCG2 (unknown origin) expressed in human HEK293 cells assessed as reversal of BCRP-mediated mitoxantrone resistance and measured after 90 mins by FACSflow cytometry analysis. The class given is cell-based.
Experiment [6] has the same target. In words: Inhibition of ABCG2 (unknown origin) expressed in human MCF7/MX cells mediated mitoxantrone efflux assessed as intracellular mitoxantrone level and measured after 30 mins by FACSflow cytometry analysis. The class given is cell-based.
For experiment [7] the target is unchanged. Briefly: Inhibition of human ABCG2 expressed in dog MDCK-II-BCRP cells mediated pheophorbide A efflux by flow cytometry. The class given is cell-based.
For experiment [8] the target is unchanged. In words: Inhibition of ABCG2 (unknown origin) expressed in human HEK293 cells mediated pheophorbide A efflux and measured after 90 mins by FACSflow cytometry. In kind it is cell-based.
For experiment [9] the target is unchanged. Briefly: Inhibition of ABCG2 (unknown origin) expressed in human HEK293 cells membrane vesicles assessed inhibition of BCRP- mediated transport of 3[H]-E1S for 1 mins using [3H]-estrone sulfate as substrate by rapid filtration technique. In kind it is cell membranes, Membrane vesicle.
Experiment [10] has the same target. Briefly: Inhibition of ABCG2 (unknown origin) expressed in human HEK cells membrane vesicle assessed as inhibition of BCRP- mediated transport of [3H]-E3S using [3H]-oestrone 3-sulfate as radiolabeled substrate by liquid scintillation counter analysis. The class given is cell membranes.
The target is the same in experiment [11]. In words: Inhibition of human ABCG2 expressed in human HEK293 cells mediated pheophorbide A efflux and measured after 90 mins by FACSflow cytometry.

For orientation: pIC50 means the negative decadic logarithm of the IC50, by convention in mol/L.

pIC50: −log10 of the molar value. Numbered stars: 1 amine (or outer) side, 2 acyl side, 3 side chain; on linkers, the order of the positions; unused ones are H or OH. Bridge positions count the residues as written; N and C are the ends. Square brackets hold non-standard residues; d marks the D form. Peptide text beside a SMILES is read from it. * marks the point of attachment. hTyr(3S-OH,4S-OH,3'-OSO3H) = N[C@H](C(=O)O)[C@H](O)[C@@H](O)c1ccc(O)c(OS(=O)(=O)O)c1; Orn(4R-OH,5R-OH) = O=C([C@H](C[C@@H](O)[C@@H](O)N[*:3])N[*:1])[*:2]; Pro(3S-OH,4S-Me) = C[C@H]1CN[C@H](C(=O)O)[C@H]1O; X1 = CCCCCOc1ccc(-c2cc(-c3ccc(C(=O)*)cc3)no2)cc1; Gln(3R-OH) = NC(=O)C[C@@H](O)[C@H](N)C(=O)O; Hyp = O=C(O)[C@@H]1C[C@@H](O)CN1 Bounds are passed on as bounds.

The molecule `C[C@@H](c1nc(-c2ccc(C#N)cc2)cs1)[C@](O)(Cn1cncn1)c1cc(F)ccc1F` [ISAVUCONAZOLE] showed a pIC50 in experiment [1] of 4.96.

Consider `CCC(C)n1ncn(-c2ccc(N3CCN(c4ccc(OCC5COC(Cn6cncn6)(c6ccc(Cl)cc6Cl)O5)cc4)CC3)cc2)c1=O` (stereo unspecified) [ITRACONAZOLE], for which the pIC50 in experiment [1] is 5.70.

Take `Cc1c(OCC(F)(F)F)ccnc1C[S+]([O-])c1nc2ccccc2[nH]1` (stereo unspecified) [LANSOPRAZOLE]: in experiment [2], the negative logarithm of the IC50 (pIC50) is 4.84.

As to `Cc1cccc(C)c1OCC(=O)N[C@@H](Cc1ccccc1)[C@@H](O)C[C@H](Cc1ccccc1)NC(=O)[C@H](C(C)C)N1CCCNC1=O` [LOPINAVIR], the pIC50 in [3] was 5.12.

As for `CCCCCOc1ccc(-c2cc(-c3ccc(C(=O)N[C@H]4C[C@@H](O)[C@@H](O)NC(=O)[C@@H]5[C@@H](O)[C@@H](C)CN5C(=O)[C@H]([C@H](O)CC(N)=O)NC(=O)[C@H]([C@H](O)[C@@H](O)c5ccc(O)c(OS(=O)(=O)O)c5)NC(=O)[C@@H]5C[C@@H](O)CN5C(=O)[C@H]([C@@H](C)O)NC4=O)cc3)no2)cc1` [MICAFUNGIN] (X1-[Orn(4R-OH,5R-OH)]T[Hyp][hTyr(3S-OH,4S-OH,3'-OSO3H)][Gln(3R-OH)][Pro(3S-OH,4S-Me)]; lactam 1-C), the pIC50 in experiment [1] was 4.68.

As for `CN(C)C(=O)CCSC(SCCC(=O)O)c1cccc(/C=C/c2ccc3ccc(Cl)cc3n2)c1` (stereo unspecified) [MK-571], the negative-log IC50 (pIC50) in [4] is 4.30.

As to `COC(=O)C1=C(C)NC(C)=C(C(=O)OCCN(C)Cc2ccccc2)C1c1cccc([N+](=O)[O-])c1` (stereo unspecified) [NICARDIPINE], the negative-log IC50 (pIC50) in experiment [5] was 5.32.

Regarding `COCCOC(=O)C1=C(C)NC(C)=C(C(=O)OC(C)C)C1c1cccc([N+](=O)[O-])c1` (stereo unspecified) [NIMODIPINE], the negative logarithm of the IC50 (pIC50) in experiment [5] was 4.86.

As to `CCOC(=O)C1=C(C)NC(C)=C(C(=O)OC)C1c1cccc([N+](=O)[O-])c1` (stereo unspecified) [NITRENDIPINE], in [6], the pIC50 was 4.68.

Turning to `COc1ccc2[nH]c([S+]([O-])Cc3ncc(C)c(OC)c3C)nc2c1` (stereo unspecified) [OMEPRAZOLE], the pIC50 in experiment [2] is 4.75.

Turning to `COc1ccnc(C[S+]([O-])c2nc3ccc(OC(F)F)cc3[nH]2)c1OC` (stereo unspecified) [PANTOPRAZOLE], in [2], the negative logarithm of the IC50 (pIC50) was 5.26.

`CC[C@@H]([C@H](C)O)n1ncn(-c2ccc(N3CCN(c4ccc(OC[C@@H]5CO[C@@](Cn6cncn6)(c6ccc(F)cc6F)C5)cc4)CC3)cc2)c1=O` [POSACONAZOLE] had a pIC50 in experiment [1] of 5.22.

In experiment [2], `COCCCOc1ccnc(C[S+]([O-])c2nc3ccccc3[nH]2)c1C` (stereo unspecified) [RABEPRAZOLE] had a pIC50 of 5.07.

In experiment [7], `Cc1cc(/C=C/C#N)cc(C)c1Nc1ccnc(Nc2ccc(C#N)cc2)n1` [RILPIVIRINE] gave a negative logarithm of the IC50 (pIC50) of 5.82.

The molecule `CO[C@H]1C[C@@H]2CC[C@@H](C)[C@@](O)(O2)C(=O)C(=O)N2CCCC[C@H]2C(=O)O[C@H]([C@H](C)C[C@@H]2CC[C@@H](O)[C@H](OC)C2)CC(=O)[C@H](C)/C=C(\C)[C@@H](O)[C@@H](OC)C(=O)[C@H](C)C[C@H](C)/C=C/C=C/C=C/1C` [SIROLIMUS] showed a pIC50 in experiment [8] of 5.72.

`CC(C)=CCC/C(C)=C/CNCCNC1C2CC3CC(C2)CC1C3` (stereo unspecified) [SQ109]: the pIC50 in experiment [9] is 5.26.

`O=C(O)c1cc(/N=N/c2ccc(S(=O)(=O)Nc3ccccn3)cc2)ccc1O` [SULFASALAZINE]: the negative-log IC50 (pIC50) in experiment [10] was 6.34.

For `C=CC[C@@H]1/C=C(\C)C[C@H](C)C[C@H](OC)[C@H]2O[C@@](O)(C(=O)C(=O)N3CCCC[C@H]3C(=O)O[C@H](/C(C)=C/[C@@H]3CC[C@@H](O)[C@H](OC)C3)[C@H](C)[C@@H](O)CC1=O)[C@H](C)C[C@@H]2OC` [TACROLIMUS ANHYDROUS], the negative logarithm of the IC50 (pIC50) in [8] was 5.48.

Regarding `COc1cc(O)c2c(=O)cc(-c3ccccc3)oc2c1` [TECHTOCHRYSIN], the negative-log IC50 (pIC50) in [11] is 5.52.

For `CSc1ccc2c(c1)N(CCC1CCCCN1C)c1ccccc1S2` (stereo unspecified) [THIORIDAZINE], in experiment [9], the pIC50 is 5.18.

Turning to `COc1cc(C(=O)C(=O)N(C)[C@@H](Cc2ccc(Cl)cc2)C(=O)N(Cc2ccccc2)C(CCc2ccncc2)CCc2ccncc2)cc(OC)c1OC` [TIMCODAR], in experiment [9], the negative logarithm of the IC50 (pIC50) was less than 4.00.
